Results: the NIST ThermoML archive (doi:10.1021/je301095j)

Experiment: xn = mol fraction of the nth substance listed
Conditions: 101 kPa, Liquid; for kinematic viscosity: Capillary tube (Ostwald / Ubbelohde) method; for mass density: Vibrating tube method

COCCOC [1,2-dimethoxyethane] + CCCCCCCCO
Conditions	kinematic viscosity [m2/s]	mass density [kg/m3]
283.15 K, x1 = 0.06697	1.152e-05	833.91
283.15 K, x1 = 0.1224	8.912e-06	835.41
283.15 K, x1 = 0.2171	5.951e-06	838.23
283.15 K, x1 = 0.3108	4.177e-06	841.31
283.15 K, x1 = 0.4036	3.014e-06	844.65
283.15 K, x1 = 0.5046	2.16e-06	848.72
283.15 K, x1 = 0.593	1.65e-06	852.66
283.15 K, x1 = 0.6949	1.225e-06	857.74
283.15 K, x1 = 0.7907	9.43e-07	863.1
283.15 K, x1 = 0.8983	7.18e-07	870.05
283.15 K, x1 = 0.9329	6.62e-07	872.53
293.15 K, x1 = 0.06547	8.238e-06	826.71
293.15 K, x1 = 0.1085	6.898e-06	827.8
293.15 K, x1 = 0.208	4.672e-06	830.48
293.15 K, x1 = 0.3098	3.277e-06	833.51
293.15 K, x1 = 0.4069	2.39e-06	836.71
293.15 K, x1 = 0.5036	1.79e-06	840.25
293.15 K, x1 = 0.5981	1.37e-06	844.1
293.15 K, x1 = 0.6905	1.07e-06	848.29
293.15 K, x1 = 0.7963	8.12e-07	853.72
293.15 K, x1 = 0.896	6.42e-07	859.6
293.15 K, x1 = 0.9434	5.8e-07	862.69
303.15 K, x1 = 0.05281	6.333e-06	819.29
303.15 K, x1 = 0.2029	3.707e-06	822.86
303.15 K, x1 = 0.2197	3.499e-06	823.3
303.15 K, x1 = 0.299	2.72e-06	825.44
303.15 K, x1 = 0.3826	2.122e-06	827.89
303.15 K, x1 = 0.4984	1.531e-06	831.64
303.15 K, x1 = 0.6107	1.14e-06	835.78
303.15 K, x1 = 0.6969	9.2e-07	839.34
303.15 K, x1 = 0.8038	7.15e-07	844.34
303.15 K, x1 = 0.892	5.86e-07	849.04
303.15 K, x1 = 0.935	5.35e-07	851.56
313.15 K, x1 = 0.05472	4.688e-06	812.24
313.15 K, x1 = 0.1071	3.922e-06	813.31
313.15 K, x1 = 0.2145	2.8e-06	815.67
313.15 K, x1 = 0.2882	2.251e-06	817.43
313.15 K, x1 = 0.4028	1.643e-06	820.44
313.15 K, x1 = 0.5028	1.27e-06	823.38
313.15 K, x1 = 0.5955	1.008e-06	826.4
313.15 K, x1 = 0.6897	8.07e-07	829.8
313.15 K, x1 = 0.7898	6.45e-07	833.92
313.15 K, x1 = 0.8945	5.16e-07	838.85
313.15 K, x1 = 0.9681	4.44e-07	842.83

COCCOC [1,2-dimethoxyethane] + CCO
Conditions	kinematic viscosity [m2/s]	mass density [kg/m3]
283.15 K, x1 = 0.05379	1.552e-06	805.91
283.15 K, x1 = 0.09719	1.381e-06	811.83
283.15 K, x1 = 0.2113	1.08e-06	825.56
283.15 K, x1 = 0.2968	9.35e-07	834.32
283.15 K, x1 = 0.4056	8.09e-07	843.94
283.15 K, x1 = 0.4865	7.45e-07	850.18
283.15 K, x1 = 0.5971	6.82e-07	857.71
283.15 K, x1 = 0.6948	6.38e-07	863.49
283.15 K, x1 = 0.8257	5.98e-07	870.24
283.15 K, x1 = 0.8749	5.83e-07	872.52
283.15 K, x1 = 0.9456	5.71e-07	875.57
293.15 K, x1 = 0.05746	1.304e-06	797.66
293.15 K, x1 = 0.09986	1.17e-06	803.22
293.15 K, x1 = 0.1453	1.07e-06	808.77
293.15 K, x1 = 0.2138	9.37e-07	816.42
293.15 K, x1 = 0.2947	8.24e-07	824.42
293.15 K, x1 = 0.399	7.25e-07	833.43
293.15 K, x1 = 0.4877	6.64e-07	840.1
293.15 K, x1 = 0.5965	6.09e-07	847.24
293.15 K, x1 = 0.6885	5.75e-07	852.56
293.15 K, x1 = 0.8249	5.39e-07	859.38
293.15 K, x1 = 0.8772	5.26e-07	861.72
293.15 K, x1 = 0.9542	5.13e-07	864.93
303.15 K, x1 = 0.04309	1.14e-06	786.92
303.15 K, x1 = 0.1038	9.89e-07	794.71
303.15 K, x1 = 0.2082	8.13e-07	806.41
303.15 K, x1 = 0.2955	7.17e-07	814.8
303.15 K, x1 = 0.3926	6.39e-07	822.94
303.15 K, x1 = 0.497	5.82e-07	830.54
303.15 K, x1 = 0.5918	5.43e-07	836.55
303.15 K, x1 = 0.6991	5.1e-07	842.5
303.15 K, x1 = 0.8103	4.86e-07	847.89
303.15 K, x1 = 0.8876	4.73e-07	851.26
303.15 K, x1 = 0.9199	4.68e-07	852.57
313.15 K, x1 = 0.04639	9.59e-07	778.57
313.15 K, x1 = 0.1049	8.49e-07	785.84
313.15 K, x1 = 0.211	7.05e-07	797.27
313.15 K, x1 = 0.2977	6.27e-07	805.28
313.15 K, x1 = 0.3787	5.75e-07	811.92
313.15 K, x1 = 0.4959	5.21e-07	820.25
313.15 K, x1 = 0.6512	4.7e-07	829.41
313.15 K, x1 = 0.6979	4.62e-07	831.83
313.15 K, x1 = 0.8168	4.39e-07	837.35
313.15 K, x1 = 0.8803	4.32e-07	840.03
313.15 K, x1 = 0.9384	4.23e-07	842.37

COCCOC [1,2-dimethoxyethane] + CCCCCO
Conditions	kinematic viscosity [m2/s]	mass density [kg/m3]
283.15 K, x1 = 0.04484	5.31e-06	824.28
283.15 K, x1 = 0.07064	–	825.63
283.15 K, x1 = 0.1021	4.09e-06	827.27
283.15 K, x1 = 0.2104	2.73e-06	833.01
283.15 K, x1 = 0.3077	2.01e-06	838.24
283.15 K, x1 = 0.4078	1.54e-06	843.7
283.15 K, x1 = 0.4902	1.27e-06	848.25
283.15 K, x1 = 0.5751	–	853
283.15 K, x1 = 0.712	8.27e-07	860.78
283.15 K, x1 = 0.7978	7.25e-07	865.75
283.15 K, x1 = 0.8137	–	866.69
283.15 K, x1 = 0.8957	6.35e-07	871.5
283.15 K, x1 = 0.9347	–	873.81
283.15 K, x1 = 0.9473	5.96e-07	874.57
293.15 K, x1 = 0.04837	3.98e-06	816.95
293.15 K, x1 = 0.07064	–	818.04
293.15 K, x1 = 0.09244	3.32e-06	819.11
293.15 K, x1 = 0.1962	–	824.24
293.15 K, x1 = 0.2048	2.24e-06	824.66
293.15 K, x1 = 0.3078	1.65e-06	829.83
293.15 K, x1 = 0.408	1.28e-06	834.94
293.15 K, x1 = 0.497	1.05e-06	839.55
293.15 K, x1 = 0.595	8.65e-07	844.67
293.15 K, x1 = 0.6985	7.25e-07	850.18
293.15 K, x1 = 0.7088	–	850.73
293.15 K, x1 = 0.7978	6.17e-07	855.54
293.15 K, x1 = 0.8137	–	856.41
293.15 K, x1 = 0.896	5.4e-07	860.92
293.15 K, x1 = 0.9071	–	861.54
293.15 K, x1 = 0.9541	5.01e-07	864.14
303.15 K, x1 = 0.04441	3.14e-06	809.26
303.15 K, x1 = 0.1118	2.45e-06	812.32
303.15 K, x1 = 0.1947	1.89e-06	816.15
303.15 K, x1 = 0.3088	1.39e-06	821.48
303.15 K, x1 = 0.4056	1.11e-06	826.06
303.15 K, x1 = 0.4948	9.29e-07	830.35
303.15 K, x1 = 0.6215	–	836.52
303.15 K, x1 = 0.7076	6.5e-07	840.79
303.15 K, x1 = 0.8038	5.69e-07	845.62
303.15 K, x1 = 0.8519	–	848.06
303.15 K, x1 = 0.8998	5.08e-07	850.52
303.15 K, x1 = 0.9524	4.8e-07	853.23
313.15 K, x1 = 0.06014	2.34e-06	802.42
313.15 K, x1 = 0.0969	2.08e-06	803.97
313.15 K, x1 = 0.1159	–	804.76
313.15 K, x1 = 0.2221	–	809.31
313.15 K, x1 = 0.3249	1.13e-06	813.76
313.15 K, x1 = 0.4049	9.58e-07	817.27
313.15 K, x1 = 0.4955	8.09e-07	821.28
313.15 K, x1 = 0.599	6.82e-07	825.94
313.15 K, x1 = 0.7001	5.86e-07	830.56
313.15 K, x1 = 0.801	5.16e-07	835.25
313.15 K, x1 = 0.9031	4.59e-07	840.05
313.15 K, x1 = 0.9604	4.34e-07	842.78
